Results: patent US20150190369A1, “QUERCETIN-3-GLUCOSIDE AND USES THEREOF” (priority 2012, published 2015)

Experiments:
ABCA1 mRNA = test: qRT-PCR for ABCA1 mRNA in MIN6 β-cells; assay type: cell-based, mouse; details: MIN6, 24 h
Experimental: (§1) Mouse insulinoma MIN6 cells were cultured in a 5% CO2-95% air atmosphere at 37° C. in DMEM medium containing 10% heat-inactivated fetal bovine serum, 1 mM Na-pyruvate, 2 mM L-glutamine, 25 mM D-glucose, and 28 μM β-mercaptoethanol. Q3G at a specific final concentration was supplemented to the culture medium and incubation was conducted for a selected length of time. Media were collected, spun at 600 g to sediment suspended cells, supplemented with 0.5 volumes of 3×RIPA-PIC (1×: 50 mM Tris-HCl, pH 8, 150 mM NaCl, 1% NP-40, 0.5% Na-deoxycholate and 0.1% SDS and PIC). Cells were lysed in 1×RIPA-PIC for immuno-blotting, or in RNA extraction buffer for qRT-PCR.
For the mouse studies, the levels of specific mRNAs were quantified in a PCR-based fluorogenic assay using the Taqman technology (Holland et al., 1991). Briefly, total RNA was extracted using the RNeasy extraction kit and reverse-transcribed into cDNA using random hexameric primers and the Superscript II RNase H-Reverse Transcriptase. […] Standard curves were established using varying amounts of pre-quantified amplicons of each transcript. […]
MIN6 β-cells were incubated for 24 h in the presence of different concentrations of Q3G. Total RNA was extracted and analyzed by qRT-PCR for the levels of mRNA for PCSK9, LDLR, ABCA1 and ABCG1.

PCSK9 = test: Pulse-chase metabolic labeling and immunoprecipitation of PCSK9-related proteins in Huh7 cells; assay type: cell-based, human; details: Huh7 pre-incubated 24 h with 5 μM Q3G
Experimental: For metabolic labeling, Huh7 cells were seeded in a 12-well plate 8×10^5 cells/well in 1.5 ml/well of complete medium and incubated overnight. After a rinse with Dulbecco's PBS (PBS-D), cell monolayers were overlaid with 1.5 ml of DMEM/10% LPDS without or with 5 μM Q3G, and were incubated for 24 h. Fresh serum-free medium (SFM, 1.5 ml) was substituted, and cells were allowed to incubate for 30 min to reduce endogenous Met and Cys. The medium was removed and replaced with fresh SFM (0.75 ml/well) containing 300 μCi/ml^35S-Met/Cys, and cells were incubated at 37° C. for 20 min to label de novo biosynthesized proteins (pulse-labeling). The radioactive medium was replaced with DMEM/0.5% LPDS containing 10 mM non-radioactive Met/Cys and cells were incubated at 37° C. for 0, 15, 30, 60, 90 and 120 min (chase). Conditioned media and cell lysates were processed as described above.
Radioactive conditioned media or cell lysates (0.1 ml) were supplemented with […] of normal rabbit serum and 15 μl of a 50% (w/v) suspension of Protein A-agarose. After a 1-h incubation at 4° C. with rotational mixing, the samples were centrifuged at 3,000 g for 5 min at 4° C. Supernatants were supplemented 2 μl of rabbit anti-PCSK9 [35], and incubated as above. […] Specific radioactive protein bands were visualized and quantified on a Typhoon Phosphorimager (Molecular Dynamics). […]

proPCSK9 = test: Immunoblotting for PCSK9/proPCSK9 in MIN6 β-cells; assay type: cell-based, mouse; details: MIN6, 24 h, 16 μM Q3G versus untreated
Experimental: The corresponding photographs of the immunoblotting results are also shown. MIN6 cells were incubated for 24 h in the presence of 16 μM Q3G. Cell lysates were analyzed by semi-quantitative immunoblotting using different antibodies successively.
as §1
Cell lysates were fractionated by SDS-PAGE and electrophoretically transferred onto a polyvinylidene fluoride membrane. […] The signal was captured on X-ray film and immunoreactive bands analyzed by densitometry on a Syngene's ChemiGenius^2XE Bio Imaging System (Cambridge, Mass.) within the dynamic range of the instrument. […]

How did the “effect on ABCA1 mRNA levels” value (ABCA1 mRNA; Q3G 8 mM and above) turn out when `O=c1c(O[C@@H]2O[C@H](CO)[C@@H](O)[C@H](O)[C@H]2O)c(-c2ccc(O)c(O)c2)oc2cc(O)cc(O)c12` [Q3G, quercetin-3-O-β-D-glucoside] was run?
The value was “reducing”.

And the “increase of ABCA1 mRNA levels” value (ABCA1 mRNA; Q3G up to 4 mM)?
Its value is “about 50%”.

What about the “rate of intracellular proPCSK9 precursor processing versus untreated cells” value (PCSK9) of the same compound?
The value was “no obvious difference”.

And the “time to half-maximum accumulation of PCSK9 in culture media (percent of total PCSK9 proteins)” value (PCSK9; control cells 60 min)?
Its value is 90 min.

What about the “intracellular content of proPCSK9” value (proPCSK9) of the same compound?
Its value is “higher”.
